Test results published in US20260102425A1 (Allergan, Inc., priority 2018, published 2026).

Test system: Staphylococcus aureus ATCC 29213
Assay: Time kill efficacy against Staphylococcus aureus ATCC 29213 (log drop after 30 seconds of exposure)
Assay type: cell-based
Method: Time kill efficacy experiments were performed against Staphylococcus aureus ATCC 29213 (S aureus). Plates with Tryptic Soy agar (TSA) were inoculated with cultures of S aureus and incubated at 30-35° C. for 24 hours. Bacterial cultures were harvested and sample suspensions were adjusted to contain approximately […] colony-forming units (CFU) per milliliter. […] After 30 seconds of exposure, 1 mL of the test suspension was removed and added to 9.0 ml of Dey-Engley neutralizer. One hundred μL of this neutralized suspension was plated in triplicates on TSA plates using an automated spiral plating instrument (Eddyjet 2, Neutec group Inc, New York, USA), with 7 log serial dilution mode. All bacterial plates were incubated at 30-35° C. for 2 days. The log drop values are determined as the difference between the logged CFU in the plates with and without the test article.

Substance: sodium chlorite
- Δ log reduction in the presence of 0.5% Brij 35 compared to alone (0.5% Brij 35 added to 5% povidone-iodine or to 8000 ppm sodium chlorite activated at pH 5, FIGS. 5A-5B): 1.6
- Δ log reduction in the presence of 0.5% Pluronic F-127 compared to alone (0.5% Pluronic F-127 added to 5% povidone-iodine or to 8000 ppm sodium chlorite activated at pH 5, FIGS. 5A-5B): 1.46
- Δ log reduction in the presence of 0.5% polysorbate 80 compared to alone (0.5% polysorbate 80 added to 5% povidone-iodine or to 8000 ppm sodium chlorite activated at pH 5, FIGS. 5A-5B): 2.9
- kill efficacy compared to sodium chlorite-only formulations and 5% povidone-iodine (800 ppm-8000 ppm sodium chlorite, pH 5 buffer, with 0.5% PS80, FIG. 2): more efficacious than sodium chlorite-only formulations
- kill efficacy compared to 5% povidone-iodine (4800 ppm and 6400 ppm sodium chlorite, pH 5 buffer, without PS80, FIG. 2): more efficacious than 5% povidone-iodine
- log reductions, alone (8000 ppm sodium chlorite activated at pH 5, alone, FIG. 5B): 2.0-3.0
- efficacy with 0.5% polysorbate 80 compared to formulations containing 0.5% Brij 35 or 0.5% Pluronic F-127 (8000 ppm sodium chlorite activated at pH 5, FIG. 5B): significantly greater
- log reduction (8000 ppm sodium chlorite activated with pH 2 buffer, 30 seconds exposure, FIG. 1, n=3): 5.0
- log reduction (8000 ppm sodium chlorite activated with pH 3 buffer, 30 seconds exposure, FIG. 1, n=3): 5.0
- log reduction (8000 ppm sodium chlorite activated with pH 4 buffer, 30 seconds exposure, FIG. 1, n=3): 5.0
- log reduction (8000 ppm sodium chlorite activated with pH 5 buffer, 30 seconds exposure, FIG. 1, n=3): 2.4
- effect of 0.5% PS80 on log reduction (8000 ppm sodium chlorite pH4, 10% FBS, 0.5% PS80, FIG. 6): significantly increased the log reduction
- bactericidal effectiveness on addition of PS80 at lower concentrations (8000 ppm sodium chlorite pH 4, 10% FBS, PS80 0.015% or 0.025%, FIG. 6): not significantly affected
- effect of the presence of FBS on log reduction (8000 ppm sodium chlorite pH 4 and 0.5% PS80, with 10% FBS, FIG. 6): essentially unaffected
- effect of added Brij 35 on kill efficacy (8000 ppm sodium chlorite pH 5 plus Brij 35 0.05%-0.5%, FIG. 3): enhanced the efficacy
- effect of added Pluronic F-127 on kill efficacy (8000 ppm sodium chlorite pH 5 plus Pluronic F-127 at 0.25% and 0.5%, FIG. 4, N=1): appeared to augment the efficacy
- log reduction (8000 ppm sodium chlorite, pH 4 buffer, absence of both 10% FBS and PS80, FIG. 6): about 5
- log reduction (8000 ppm sodium chlorite, pH 4 buffer, in the presence of 10% FBS (organic load), no PS80, FIG. 6): about 2
